The record followed here is publication PMC2577671, “Evaluation of Dimebon in cellular model of Huntington's disease” (Molecular Neurodegeneration, 2008).

For assay [1], the target named is T1, Bradykinin B2 (Homo sapiens, UniProt P30411).
T1 construct: gene BDKRB2
The experiment in a line: biochemical. More on the design: MDS Pharma Lead Profiling screen, binding assays, per cent inhibition, duplicate. How it is done:
(§1) The activity of Dimebon against selected set of biochemical targets was performed by MDS Pharma Services . The Dimebon was provided to MDS Pharma as dry powder, dissolved in DMSO and tested in 10 μM concentrations. The standard Lead Profiling + CYP450 screen was performed according to MDS Pharma specifications with additional custom-chosen targets added to the screen as indicated. To further understand potential mechanisms responsible for clinical effects of Dimebon, we evaluated Dimebon against a set of selected biochemical targets. Dimebon evaluation was performed by MDS Pharma Services . The standard Lead Profiling + CYP450 screen was performed with additional custom-selected targets added to the screen. The results of the screen obtained at 10 μM of Dimebon are provided as Additional File 3. […] Low affinity (50–60% inhibition) interactions were also observed for CYP450, 2C19 receptor, voltage-gated L-type Ca^2+ channel, Dopamine D4.2 receptor, and Serotonin 5-HT1 receptor. […] Supplementary file 1750-1326-3-15-S3.pdf: Additional file 3 The results of Dimebon screening against a selected set of biochemical targets. The complete results obtained by MDS Pharma with a selected list of biochemical targets using 10 μM of Dimebon as a probe. The Cat numbers refer to the MDS Pharma Services assay specification. The receptors and species are listed. Dimebon was tested at 10 μM concentratio in duplicate. The % inhibition by Dimebon is shown numerically and graphically for each receptor. Significant targets (defined as % inhibition > 50%) are highlighted in yellow. Click here for file

Assay [2] deals with T2, Glucocorticoid (Homo sapiens, UniProt P04150).
T2 construct: gene NR3C1
The experiment in a line: biochemical. On the set-up: MDS Pharma Lead Profiling screen, binding assays, per cent inhibition, duplicate. How it is done:
as §1

Assay [3] addresses T3, Histamine H2 receptor (Homo sapiens, UniProt P25021).
T3 construct: gene HRH2
The experiment in a line: biochemical. More on the design: MDS Pharma Lead Profiling screen, binding assays, per cent inhibition, duplicate. How it is done:
as §1

Assay [4] addresses T4, Muscarinic M3 (Homo sapiens, UniProt P20309).
T4 construct: gene CHRM3
The experiment in a line: biochemical. More on the design: MDS Pharma Lead Profiling screen, binding assays, per cent inhibition, duplicate. How it is done:
as §1

Assay [5] concerns the target T5, Serotonin 5-HT3 (Homo sapiens, UniProt P46098).
T5 construct: gene HTR3A
The experiment in a line: biochemical. More on the design: MDS Pharma Lead Profiling screen, binding assays, per cent inhibition, duplicate. As to the method:
as §1

In assay [6] the target is T6, Adenosine A2A (Homo sapiens, UniProt P29274).
T6 construct: gene ADORA2A
The experiment in a line: biochemical. On the set-up: MDS Pharma Lead Profiling screen, binding assays, per cent inhibition, duplicate. As to the method: as §1

Assay [7] addresses T7, Dopamine D1 (Homo sapiens, UniProt P21728).
T7 construct: gene DRD1
The experiment in a line: biochemical. On the set-up: MDS Pharma Lead Profiling screen, binding assays, per cent inhibition, duplicate. As to the method:
as §1

Assay [8] concerns the target T8, Epidermal Growth Factor (EGF) (Homo sapiens, UniProt P00533).
T8 construct: gene EGFR
The experiment in a line: biochemical. On the set-up: MDS Pharma Lead Profiling screen, binding assays, per cent inhibition, duplicate. As to the method:
as §1

Assay [9] concerns the target T9, Adrenergic beta1 (Homo sapiens, UniProt P08588).
T9 construct: gene ADRB1
The experiment in a line: biochemical. On the set-up: MDS Pharma Lead Profiling screen, binding assays, per cent inhibition, duplicate. How it is done: as §1

For assay [10], the target named is T10, Transporter, Dopamine (DAT) (Homo sapiens, UniProt Q01959).
T10 construct: gene SLC6A3
T10 sequence (Q01959 whole entry): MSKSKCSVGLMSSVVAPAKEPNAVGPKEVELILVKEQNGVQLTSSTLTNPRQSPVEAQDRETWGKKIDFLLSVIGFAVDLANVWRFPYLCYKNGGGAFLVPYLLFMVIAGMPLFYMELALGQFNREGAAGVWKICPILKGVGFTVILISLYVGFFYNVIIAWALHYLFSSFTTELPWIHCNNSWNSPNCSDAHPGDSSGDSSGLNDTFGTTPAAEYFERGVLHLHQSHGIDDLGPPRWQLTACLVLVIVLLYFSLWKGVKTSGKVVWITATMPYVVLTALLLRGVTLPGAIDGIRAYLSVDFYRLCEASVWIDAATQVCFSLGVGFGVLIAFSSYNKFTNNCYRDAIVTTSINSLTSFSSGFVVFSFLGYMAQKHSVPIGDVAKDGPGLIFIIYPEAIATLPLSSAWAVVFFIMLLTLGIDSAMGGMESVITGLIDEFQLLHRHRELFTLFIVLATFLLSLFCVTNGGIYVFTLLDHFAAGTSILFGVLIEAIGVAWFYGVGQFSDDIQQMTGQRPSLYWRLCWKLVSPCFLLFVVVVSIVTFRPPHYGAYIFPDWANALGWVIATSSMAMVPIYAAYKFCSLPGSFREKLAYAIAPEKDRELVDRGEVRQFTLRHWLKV
The experiment in a line: biochemical. On the set-up: MDS Pharma Lead Profiling screen, binding assays, per cent inhibition, duplicate. As to the method:
as §1

Assay [11] has as its target T11, Calcium Channel N-Type (Rattus norvegicus, UniProt Q02294).
T11 construct: gene Cacna1b
The experiment in a line: biochemical. More on the design: MDS Pharma Lead Profiling screen, binding assays, per cent inhibition, duplicate. How it is done:
as §1

The target in assay [12] is T12, Adenosine A1 (Homo sapiens, UniProt P30542).
T12 construct: gene ADORA1
T12 sequence (P30542 whole entry): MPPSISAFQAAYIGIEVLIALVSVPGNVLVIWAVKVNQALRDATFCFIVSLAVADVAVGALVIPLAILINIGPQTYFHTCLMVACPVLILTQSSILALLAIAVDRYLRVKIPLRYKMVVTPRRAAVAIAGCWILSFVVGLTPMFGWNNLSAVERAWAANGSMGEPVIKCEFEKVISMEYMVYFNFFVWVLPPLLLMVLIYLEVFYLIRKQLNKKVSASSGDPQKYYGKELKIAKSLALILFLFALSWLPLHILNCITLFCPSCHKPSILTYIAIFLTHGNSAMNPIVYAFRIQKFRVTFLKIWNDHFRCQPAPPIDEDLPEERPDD
The experiment in a line: biochemical. More on the design: MDS Pharma Lead Profiling screen, binding assays, per cent inhibition, duplicate. As to the method:
as §1

Assay [13] has as its target T13, α1D-Adrenergic receptor (Homo sapiens, UniProt P25100).
T13 construct: gene ADRA1D
The experiment in a line: biochemical. On the set-up: MDS Pharma Lead Profiling screen, binding assays, per cent inhibition, duplicate. How it is done:
as §1

The target in assay [14] is T14, Serotonin 5-HT6 receptor (Homo sapiens, UniProt P50406).
T14 construct: gene HTR6
The experiment in a line: biochemical. More on the design: MDS Pharma Lead Profiling screen, binding assays, per cent inhibition, duplicate. As to the method:
as §1

Assay [15] has as its target T15, Histamine H3 (Homo sapiens, UniProt Q9Y5N1).
T15 construct: gene HRH3
The experiment in a line: biochemical. On the set-up: MDS Pharma Lead Profiling screen, binding assays, per cent inhibition, duplicate. As to the method:
as §1

The target in assay [16] is T16, Serotonin 5-HT2c receptor (Homo sapiens, UniProt P28335).
T16 construct: gene HTR2C
T16 sequence (P28335 33-458): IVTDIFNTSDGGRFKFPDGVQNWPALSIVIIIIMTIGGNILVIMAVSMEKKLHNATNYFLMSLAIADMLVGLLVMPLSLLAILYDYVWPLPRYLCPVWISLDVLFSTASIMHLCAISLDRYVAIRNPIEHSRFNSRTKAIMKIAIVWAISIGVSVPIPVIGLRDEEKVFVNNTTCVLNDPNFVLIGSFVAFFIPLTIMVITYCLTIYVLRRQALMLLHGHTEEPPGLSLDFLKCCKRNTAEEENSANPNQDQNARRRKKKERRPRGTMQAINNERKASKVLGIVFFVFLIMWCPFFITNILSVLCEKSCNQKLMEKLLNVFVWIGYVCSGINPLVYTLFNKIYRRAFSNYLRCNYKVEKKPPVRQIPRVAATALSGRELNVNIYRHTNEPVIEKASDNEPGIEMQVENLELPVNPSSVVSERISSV
The experiment in a line: biochemical. On the set-up: MDS Pharma Lead Profiling screen, binding assays, per cent inhibition, duplicate. As to the method:
as §1

Assay [17] has as its target T17, Dopamine D2S receptor (Homo sapiens, UniProt P14416).
T17 construct: gene DRD2; D2S
The experiment in a line: MDS Pharma Services binding screen at […].

Assay [18] addresses Peptidase, BACE1 (beta-Secretase) (Homo sapiens, UniProt P56817). The experiment in a line: biochemical. On the set-up: MDS Pharma Lead Profiling + CYP450 screen, enzyme assays, per cent inhibition, duplicate. As to the method:
as §1

The target in assay [19] is T18, Monoamine Oxidase MAO-A (Homo sapiens, UniProt P21397).
T18 construct: gene MAOA
T18 sequence (P21397 whole entry): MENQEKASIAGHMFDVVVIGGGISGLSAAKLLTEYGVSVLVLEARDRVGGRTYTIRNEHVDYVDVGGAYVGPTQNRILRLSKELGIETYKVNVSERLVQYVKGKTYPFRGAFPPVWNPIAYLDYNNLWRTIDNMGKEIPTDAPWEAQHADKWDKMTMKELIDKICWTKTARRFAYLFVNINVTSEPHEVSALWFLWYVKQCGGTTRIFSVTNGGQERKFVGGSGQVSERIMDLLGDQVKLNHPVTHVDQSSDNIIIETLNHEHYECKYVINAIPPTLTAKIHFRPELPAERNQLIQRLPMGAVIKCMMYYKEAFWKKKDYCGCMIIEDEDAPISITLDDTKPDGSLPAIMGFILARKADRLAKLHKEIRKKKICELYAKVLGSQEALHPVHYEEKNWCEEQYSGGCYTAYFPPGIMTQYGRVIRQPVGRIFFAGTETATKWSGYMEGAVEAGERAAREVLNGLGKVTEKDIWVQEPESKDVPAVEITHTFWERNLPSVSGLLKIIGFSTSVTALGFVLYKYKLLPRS
The experiment in a line: biochemical. More on the design: MDS Pharma Lead Profiling + CYP450 screen, enzyme assays, per cent inhibition, duplicate. As to the method: as §1

Assay [20] concerns the target T19, Monoamine Oxidase MAO-B (Homo sapiens, UniProt P27338).
T19 construct: gene MAOB
The experiment in a line: biochemical. More on the design: MDS Pharma Lead Profiling + CYP450 screen, enzyme assays, per cent inhibition, duplicate. As to the method:
as §1

In assay [21] the target is T3, Histamine H2 receptor. The experiment in a line: MDS Pharma Services binding screen at […].
Assay [22] concerns the target T20, α2A-Adrenergic receptor (Homo sapiens, UniProt P08913).
T20 construct: gene ADRA2A
The experiment in a line: MDS Pharma Services binding screen at […].

T3 sequence (P25021 whole entry): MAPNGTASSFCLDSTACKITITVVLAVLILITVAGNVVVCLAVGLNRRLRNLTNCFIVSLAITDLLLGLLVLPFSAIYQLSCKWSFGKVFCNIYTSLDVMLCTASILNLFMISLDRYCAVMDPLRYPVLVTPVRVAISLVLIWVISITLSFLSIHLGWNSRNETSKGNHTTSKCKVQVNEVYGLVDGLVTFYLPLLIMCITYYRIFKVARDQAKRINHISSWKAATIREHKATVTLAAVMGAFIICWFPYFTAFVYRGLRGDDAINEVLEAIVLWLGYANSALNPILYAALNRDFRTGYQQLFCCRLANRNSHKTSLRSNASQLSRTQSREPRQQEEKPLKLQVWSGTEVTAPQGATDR
T8 sequence (P00533 whole entry): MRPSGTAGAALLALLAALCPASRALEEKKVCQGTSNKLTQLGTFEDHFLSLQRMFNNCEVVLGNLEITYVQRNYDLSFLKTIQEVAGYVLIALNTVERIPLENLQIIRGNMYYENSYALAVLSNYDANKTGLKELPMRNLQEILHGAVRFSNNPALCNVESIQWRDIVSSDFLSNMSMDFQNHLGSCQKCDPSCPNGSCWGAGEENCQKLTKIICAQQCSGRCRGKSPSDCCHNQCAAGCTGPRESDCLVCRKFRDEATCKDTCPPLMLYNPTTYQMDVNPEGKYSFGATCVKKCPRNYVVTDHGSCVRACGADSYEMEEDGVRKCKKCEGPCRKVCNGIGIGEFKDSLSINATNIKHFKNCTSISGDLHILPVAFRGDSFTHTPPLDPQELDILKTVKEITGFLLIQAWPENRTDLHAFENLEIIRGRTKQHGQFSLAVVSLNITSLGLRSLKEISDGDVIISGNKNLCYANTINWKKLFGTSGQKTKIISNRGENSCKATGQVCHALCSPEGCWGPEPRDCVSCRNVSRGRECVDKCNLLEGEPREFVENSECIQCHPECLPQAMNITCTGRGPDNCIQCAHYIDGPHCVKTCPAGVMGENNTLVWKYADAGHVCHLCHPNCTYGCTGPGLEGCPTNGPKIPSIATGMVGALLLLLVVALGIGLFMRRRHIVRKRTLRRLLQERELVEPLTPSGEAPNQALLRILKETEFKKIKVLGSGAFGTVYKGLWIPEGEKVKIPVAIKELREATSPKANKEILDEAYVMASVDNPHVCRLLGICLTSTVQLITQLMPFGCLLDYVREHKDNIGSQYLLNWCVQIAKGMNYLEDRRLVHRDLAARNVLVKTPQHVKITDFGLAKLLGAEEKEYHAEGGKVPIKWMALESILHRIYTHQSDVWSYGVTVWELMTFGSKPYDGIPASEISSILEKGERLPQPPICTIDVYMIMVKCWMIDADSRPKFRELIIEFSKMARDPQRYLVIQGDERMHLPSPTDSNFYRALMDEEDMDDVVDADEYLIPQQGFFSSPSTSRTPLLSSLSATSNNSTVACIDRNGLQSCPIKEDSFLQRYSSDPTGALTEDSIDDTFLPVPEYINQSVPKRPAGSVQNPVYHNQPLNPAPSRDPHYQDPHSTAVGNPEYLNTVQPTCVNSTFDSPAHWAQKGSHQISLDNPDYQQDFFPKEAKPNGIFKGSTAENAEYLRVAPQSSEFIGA
T19 sequence (P27338 whole entry): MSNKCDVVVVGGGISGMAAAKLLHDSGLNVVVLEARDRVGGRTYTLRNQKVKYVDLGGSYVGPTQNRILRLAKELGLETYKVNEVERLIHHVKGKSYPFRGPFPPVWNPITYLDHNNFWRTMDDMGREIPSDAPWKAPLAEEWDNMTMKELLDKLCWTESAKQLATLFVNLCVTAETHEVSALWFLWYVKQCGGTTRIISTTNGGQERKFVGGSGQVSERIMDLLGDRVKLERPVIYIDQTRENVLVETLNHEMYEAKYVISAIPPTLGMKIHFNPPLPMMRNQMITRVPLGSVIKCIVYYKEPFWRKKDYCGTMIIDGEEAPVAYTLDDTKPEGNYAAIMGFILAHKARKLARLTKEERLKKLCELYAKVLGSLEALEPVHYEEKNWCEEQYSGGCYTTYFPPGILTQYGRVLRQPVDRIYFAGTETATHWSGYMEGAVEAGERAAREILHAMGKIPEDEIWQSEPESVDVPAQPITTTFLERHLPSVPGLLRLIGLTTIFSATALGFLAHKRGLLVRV
T17 sequence (P14416 other isoform, or with tags, fused parts or gaps): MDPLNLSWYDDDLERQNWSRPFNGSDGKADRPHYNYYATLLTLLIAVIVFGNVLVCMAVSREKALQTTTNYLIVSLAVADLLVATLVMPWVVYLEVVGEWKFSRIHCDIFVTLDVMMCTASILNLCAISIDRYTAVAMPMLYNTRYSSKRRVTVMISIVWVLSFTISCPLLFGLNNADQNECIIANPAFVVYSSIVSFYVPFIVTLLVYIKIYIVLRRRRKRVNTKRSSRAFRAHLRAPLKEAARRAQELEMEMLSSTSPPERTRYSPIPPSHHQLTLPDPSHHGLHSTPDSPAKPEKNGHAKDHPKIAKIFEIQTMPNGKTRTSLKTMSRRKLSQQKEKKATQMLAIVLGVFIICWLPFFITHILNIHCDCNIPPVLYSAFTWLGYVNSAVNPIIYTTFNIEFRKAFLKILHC
T13 sequence (P25100 whole entry): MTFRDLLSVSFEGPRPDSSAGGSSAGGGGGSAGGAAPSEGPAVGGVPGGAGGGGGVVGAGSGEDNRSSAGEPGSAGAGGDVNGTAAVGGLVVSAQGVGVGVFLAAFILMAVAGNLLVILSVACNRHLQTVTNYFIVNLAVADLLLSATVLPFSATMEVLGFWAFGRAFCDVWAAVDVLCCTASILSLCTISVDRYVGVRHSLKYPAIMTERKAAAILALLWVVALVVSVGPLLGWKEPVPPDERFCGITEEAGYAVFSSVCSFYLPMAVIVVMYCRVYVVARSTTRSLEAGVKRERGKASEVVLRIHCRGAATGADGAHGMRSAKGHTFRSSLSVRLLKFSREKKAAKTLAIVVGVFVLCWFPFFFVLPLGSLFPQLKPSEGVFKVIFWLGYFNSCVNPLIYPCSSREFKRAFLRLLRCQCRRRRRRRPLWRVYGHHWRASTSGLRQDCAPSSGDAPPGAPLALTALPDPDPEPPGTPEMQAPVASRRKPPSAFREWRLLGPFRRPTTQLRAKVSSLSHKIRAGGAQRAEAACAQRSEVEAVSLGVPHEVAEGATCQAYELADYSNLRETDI

The inhibition is the relative decrease from the control value, in per cent. Regarding `Cc1ccc2c(c1)c1c(n2CCc2ccc(C)nc2)CCN(C)C1` [Dimebon, 2,3,4,5-Tetrahydro-2,8-dimethyl-5-(2-(6-methyl-3-pyridyl)ethyl)-1H-pyrido(4,3-b)indole], the inhibition at 10 µM in assay [1] was -2%; in assay [2], 3%; in assay [3], 96%; in assay [4], 7%; in assay [5] it was -7%; in [6] it was -3%. For the same compound, the inhibition at 10 µM in assay [7] is 70%; in [8] it was 1%; in assay [9] it was -7%; in [10] it was 13%; in assay [11] it was 0%; in assay [12], 0%. Besides, the inhibition at 10 µM in assay [13] was 95%; in assay [14], 101%; in assay [15], -4%; in [16], 95%; in assay [17] it was 70 to 80%; in assay [18] it was -9%. For the same compound, the inhibition at 10 µM was 6% in [19], 5% in [20], > 90% in [21] and > 90% in [22].
